In US10562902B2, “IRAK4 inhibitor and use thereof” (BEIJING HANMI PHARMACEUTICAL CO., LTD., priority 2015, dated 2020):

Target: IRAK4 kinase (Homo sapiens (Human), UniProt Q9NWZ3)
Assay: IRAK4 kinase activity inhibition assay
Assay type: biochemical
Details: ADP-Glo kinase assay, 10 μM ATP, MBP substrate
Procedure: IRAK4 kinase (purchased from Life Technologies, Cat. No.: PR5612U) was diluted to 2 folds of the final concentration (the final concentration is […]) with reaction buffer (40 mM Tris-HC1, pH 7.5; 20 mM MgCl2; 0.1 mg/mL BSA; 1 mM DTT), and added to a 384-well plate at 5 μL/well. The test drugs were 10-fold serial diluted from 10 μM to set six concentration points and added to the test wells of the 384-well plate at 2.5 μL/well. After incubation for 10 min at 25° C., 10 μM of ATP and 0.1 μg/μL of an enzyme reaction substrate, myelin basic protein MBP (purchased from Signal Chem, Cat. No.: M42-51N) were added at 2.5 μL/well, and reacted at 25° C. for 60 minutes. After the reaction was completed, the kinase activity assay was performed using the ADP-Glo™ kinase assay kit (purchased from Promega, Cat. No.: V9102) according to the manufacture's instruction, i.e., 10 μL of ADP-Glo reaction reagent was first added and reacted at 25° C. for 40 minutes, 10 μL of the reaction mixture was taken and mixed with 10 μL of ADP-Glo detection reagent, and reacted at 25° C. for 30 minutes. The kinase activity was then detected, and the IC50 values of the test drugs were calculated.

IRAK4 kinase, sequence (Q9NWZ3 whole entry): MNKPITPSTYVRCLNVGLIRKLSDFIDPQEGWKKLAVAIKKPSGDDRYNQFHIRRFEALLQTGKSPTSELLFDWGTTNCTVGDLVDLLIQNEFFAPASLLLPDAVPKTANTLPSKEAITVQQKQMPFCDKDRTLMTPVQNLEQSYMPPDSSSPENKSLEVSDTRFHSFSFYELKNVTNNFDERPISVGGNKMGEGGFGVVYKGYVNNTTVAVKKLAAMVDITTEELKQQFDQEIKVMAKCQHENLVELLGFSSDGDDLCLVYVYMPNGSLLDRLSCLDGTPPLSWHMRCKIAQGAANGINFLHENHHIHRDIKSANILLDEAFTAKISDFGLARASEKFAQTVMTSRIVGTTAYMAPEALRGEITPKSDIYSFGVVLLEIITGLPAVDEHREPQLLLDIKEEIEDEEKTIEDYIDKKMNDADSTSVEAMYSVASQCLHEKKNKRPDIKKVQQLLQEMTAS

Row | Structure (SMILES) | IC50
1 | COCC(C)Oc1nc(Nc2cc(C)ns2)nc2ccn(-c3cnn(C)c3)c12 (centres unmarked) [Example 56] | 100 to 1000 nM
2 | COCCCOc1nc(Nc2cc(C)ns2)nc2ccn(-c3cnn(C)c3)c12 [Example 57] | 100 to 1000 nM
3 | Cc1cc(Nc2nc(OCC3CCOC3)c3c(ccn3-c3cnn(C)c3)n2)sn1 (centres unmarked) [Example 58] | 100 to 1000 nM
4 | Cc1cc(Nc2nc(OCc3ccccn3)c3c(ccn3-c3cnn(C)c3)n2)sn1 [Example 59] | 100 to 1000 nM
5 | Cc1cc(Nc2nc(OC3CCC3)c3c(ccn3-c3cnn(C)c3)n2)sn1 [Example 60] | 100 to 1000 nM
6 | Cc1cc(Nc2nc(OC3COC3)c3c(ccn3-c3cnn(C)c3)n2)sn1 [Example 61] | ≤ 100 nM
7 | Cc1cc(Nc2nc(OC3CC(N4CCCCC4)C3)c3c(ccn3-c3cnn(C)c3)n2)sn1 (centres unmarked) [Example 62] | ≤ 100 nM
8 | Cc1cc(Nc2nc(OC3CCCC3)c3c(ccn3-c3cnn(C)c3)n2)sn1 [Example 63] | 100 to 1000 nM
9 | Cc1cc(Nc2nc(OC3CCCCC3)c3c(ccn3-c3cnn(C)c3)n2)sn1 [Example 66] | ≤ 100 nM
10 | Cc1cc(Nc2nc(OC3CCC(O)CC3)c3c(ccn3-c3cnn(C)c3)n2)sn1 (centres unmarked) [Example 67] | 100 to 1000 nM
11 | COC1CCC(Oc2nc(Nc3cc(C)ns3)nc3ccn(-c4cnn(C)c4)c23)CC1 (centres unmarked) [Example 68] | 100 to 1000 nM
12 | Cc1cc(Nc2nc(OC3CCCN(C)C3)c3c(ccn3-c3cnn(C)c3)n2)sn1 (centres unmarked) [Example 69] | 100 to 1000 nM
13 | CC(=O)N1CCCC(Oc2nc(Nc3cc(C)ns3)nc3ccn(-c4cnn(C)c4)c23)C1 (centres unmarked) [Example 70] | 100 to 1000 nM
14 | Cc1cc(Nc2nc(OC3CCNCC3)c3c(ccn3-c3cnn(C)c3)n2)sn1 [Example 71] | 100 to 1000 nM
15 | Cc1cc(Nc2nc(OC3CCN(C)CC3)c3c(ccn3-c3cnn(C)c3)n2)sn1 [Example 72] | 100 to 1000 nM
16 | CC(=O)N1CCC(Oc2nc(Nc3cc(C)ns3)nc3ccn(-c4cnn(C)c4)c23)CC1 [Example 73] | 100 to 1000 nM
17 | Cc1cc(Nc2nc(OC3CCSCC3)c3c(ccn3-c3cnn(C)c3)n2)sn1 [Example 75] | 100 to 1000 nM
18 | Cc1cc(Nc2nc(OC3CCS(=O)(=O)CC3)c3c(ccn3-c3cnn(C)c3)n2)sn1 [Example 76] | 100 to 1000 nM
19 | Cn1cc(-n2ccc3nc(Nc4ccc(C#N)s4)nc(O[C@H]4CCOC4)c32)cn1 [Example 79] | 100 to 1000 nM
20 | Cn1cc(-n2ccc3nc(Nc4csc5ccccc45)nc(O[C@H]4CCOC4)c32)cn1 [Example 85] | 1000 to 10000 nM
21 | Cc1cc(Nc2nc(OC3CCOCC3)c3c(ccn3-c3ccn(C)c3)n2)sn1 [Example 86] | 100 to 1000 nM
22 | Cc1cc(Nc2nc(O[C@H]3CCOC3)c3c(ccn3-c3ccoc3)n2)sn1 [Example 87] | ≤ 100 nM
23 | Cc1cc(Nc2nc(OC3CCOCC3)c3c(ccn3-c3ccoc3)n2)sn1 [Example 88] | 100 to 1000 nM
24 | Cc1cc(Nc2nc(OC3CCOCC3)c3c(ccn3-c3ccsc3)n2)sn1 [Example 89] | 100 to 1000 nM
25 | CCn1cc(-n2ccc3nc(Nc4cc(C)ns4)nc(OC4CCOCC4)c32)cn1 [Example 90] | 100 to 1000 nM

Row | Structure (SMILES) | IC50
26 | COCCn1cc(-n2ccc3nc(Nc4cc(C)ns4)nc(OC4CCOCC4)c32)cn1 [Example 91] | 100 to 1000 nM
27 | Cc1cc(Nc2nc(OC3CCOCC3)c3c(ccn3-c3ccccc3)n2)sn1 [Example 92] | 100 to 1000 nM
28 | COc1ccccc1-n1ccc2nc(Nc3cc(C)ns3)nc(OC3CCOCC3)c21 [Example 93] | 1000 to 10000 nM
29 | COc1cccc(-n2ccc3nc(Nc4cc(C)ns4)nc(OC4CCOCC4)c32)c1 [Example 94] | 1000 to 10000 nM
30 | COc1ccc(-n2ccc3nc(Nc4cc(C)ns4)nc(OC4CCOCC4)c32)cc1 [Example 95] | 1000 to 10000 nM
31 | Cc1cc(Nc2nc(OC3CCOCC3)c3c(ccn3-c3cccc(N(C)C)c3)n2)sn1 [Example 96] | 1000 to 10000 nM
32 | Cc1cc(Nc2nc(OC3CCOCC3)c3c(ccn3-c3ccncc3)n2)sn1 [Example 97] | 100 to 1000 nM
33 | Cc1cc(Nc2nc(OC3CCOCC3)c3c(ccn3-c3cccnc3)n2)sn1 [Example 98] | 100 to 1000 nM
34 | COc1cncc(-n2ccc3nc(Nc4cc(C)ns4)nc(OC4CCOCC4)c32)c1 [Example 99] | 100 to 1000 nM
35 | Cc1cc(Nc2nc(O[C@H]3CCOC3)c3c(ccn3-c3ccncc3)n2)sn1 [Example 100] | 100 to 1000 nM
36 | COc1cc(-n2ccc3nc(Nc4cc(C)ns4)nc(OC4CCOCC4)c32)ccn1 [Example 101] | 100 to 1000 nM
37 | Cc1cc(Nc2nc(OC3CCOCC3)c3c(ccn3-c3ccnnc3)n2)sn1 [Example 102] | 100 to 1000 nM
38 | Cc1cc(Nc2nc(OC3CCOCC3)c3c(ccn3-c3cncnc3)n2)sn1 [Example 103] | 100 to 1000 nM
39 | Cc1cc(Nc2nc(OC3CCOCC3)c3c(ccn3-c3cccc4c3OCCO4)n2)sn1 [Example 104] | 100 to 1000 nM
40 | Cn1cc(-n2ccc3nc(Nc4ccc(N5CCOCC5)cc4)nc(O[C@H]4CCOC4)c32)cn1 [Example 118] | 100 to 1000 nM
41 | Cn1cc(-n2ccc3nc(Nc4ccc(C(=O)N5CCOCC5)cc4)nc(O[C@H]4CCOC4)c32)cn1 [Example 119] | 100 to 1000 nM
42 | Cn1cc(-n2ccc3nc(Nc4ccc5c(c4)CNC5=O)nc(O[C@H]4CCOC4)c32)cn1 [Example 120] | ≤ 100 nM
43 | CN1Cc2cc(Nc3nc(O[C@H]4CCOC4)c4c(ccn4-c4cnn(C)c4)n3)ccc2C1=O [Example 121] | ≤ 100 nM
44 | Cn1cc(-n2ccc3nc(Nc4ccc5c(c4)C(=O)NC5)nc(O[C@H]4CCOC4)c32)cn1 [Example 122] | 100 to 1000 nM
45 | CNC(=O)c1csc(Nc2nc(O[C@H]3CCOC3)c3c(ccn3-c3ccoc3)n2)c1 [Example 126] | ≤ 100 nM
46 | CCNC(=O)c1csc(Nc2nc(OC(C)C)c3c(ccn3-c3cnn(C)c3)n2)c1 [Example 127] | ≤ 100 nM
47 | CCNC(=O)c1csc(Nc2nc(OC3CCCC3)c3c(ccn3-c3cnn(C)c3)n2)c1 [Example 128] | 100 to 1000 nM
48 | CCNC(=O)c1csc(Nc2nc(OC3CCCCC3)c3c(ccn3-c3cnn(C)c3)n2)c1 [Example 129] | 100 to 1000 nM
49 | CCNC(=O)c1csc(Nc2nc(OCCOC)c3c(ccn3-c3cnn(C)c3)n2)c1 [Example 130] | ≤ 100 nM
50 | CCNC(=O)c1csc(Nc2nc(O[C@@H]3CCOC3)c3c(ccn3-c3cnn(C)c3)n2)c1 [Example 131] | ≤ 100 nM

Second part, the molecule after the results:

Row | IC50 | Structure (SMILES)
51 | ≤ 100 nM | Cc1cc(Nc2nc(O[C@@H]3CCOC3)c3c(ccn3-c3cnn(C)c3)n2)sn1 [Example 65]
52 | ≤ 100 nM | Cn1cc(-n2ccc3nc(Nc4ccc[nH]4)nc(O[C@H]4CCOC4)c32)cn1 [Example 77]
53 | ≤ 100 nM | Cn1cc(-n2ccc3nc(Nc4cccs4)nc(O[C@H]4CCOC4)c32)cn1 [Example 78]
54 | 100 to 1000 nM | Cn1cc(-n2ccc3nc(Nc4cc(C#N)cs4)nc(O[C@H]4CCOC4)c32)cn1 [Example 80]
55 | 100 to 1000 nM | Cn1cc(-n2ccc3nc(Nc4ccsc4)nc(O[C@H]4CCOC4)c32)cn1 [Example 81]
56 | 100 to 1000 nM | Cc1cc(Nc2nc(O[C@H]3CCOC3)c3c(ccn3-c3cnn(C)c3)n2)cs1 [Example 82]
57 | 100 to 1000 nM | Cc1cc(Nc2nc(O[C@H]3CCOC3)c3c(ccn3-c3cnn(C)c3)n2)on1 [Example 83]
58 | 100 to 1000 nM | Cc1cc(Nc2nc(O[C@H]3CCOC3)c3c(ccn3-c3cnn(C)c3)n2)[nH]n1 [Example 84]
59 | ≤ 100 nM | Cn1cc(Nc2nc(O[C@H]3CCOC3)c3c(ccn3-c3cnn(C)c3)n2)cn1 [Example 105, (S)-(1-methyl-1H-pyrazol-4-yl)-[5-(1-methyl-1H-pyrazol-4-yl)-4-(tetrahydrofuran-3-yloxy)-5H-pyrrolo[3,2-d]pyrimidin-2-yl]amine]
60 | ≤ 100 nM | Cn1cc(-n2ccc3nc(Nc4cn[nH]c4)nc(O[C@H]4CCOC4)c32)cn1 [Example 106]
61 | ≤ 100 nM | Cn1cc(-n2ccc3nc(Nc4cnn(CCF)c4)nc(O[C@H]4CCOC4)c32)cn1 [Example 107]
62 | ≤ 100 nM | Cn1cc(-n2ccc3nc(Nc4cnn(CCO)c4)nc(O[C@H]4CCOC4)c32)cn1 [Example 108]
63 | 100 to 1000 nM | Cn1cc(-n2ccc3nc(Nc4cnn(C5CCCCC5)c4)nc(O[C@H]4CCOC4)c32)cn1 [Example 109]
64 | ≤ 100 nM | Cn1cc(-n2ccc3nc(Nc4cnn(C5CCOCC5)c4)nc(O[C@H]4CCOC4)c32)cn1 [Example 110]
65 | ≤ 100 nM | CN1CCC(n2cc(Nc3nc(O[C@H]4CCOC4)c4c(ccn4-c4cnn(C)c4)n3)cn2)CC1 [Example 111]
66 | 100 to 1000 nM | Cn1cc(-n2ccc3nc(Nc4cnn(-c5ccccc5)c4)nc(O[C@H]4CCOC4)c32)cn1 [Example 112]
67 | ≤ 100 nM | Cn1cc(-n2ccc3nc(Nc4cnn(-c5ccncc5)c4)nc(O[C@H]4CCOC4)c32)cn1 [Example 113]
68 | ≤ 100 nM | Cn1cc(-n2ccc3nc(Nc4cnn(-c5cccnc5)c4)nc(O[C@H]4CCOC4)c32)cn1 [Example 114]
69 | 100 to 1000 nM | Cn1cc(-n2ccc3nc(Nc4cnoc4)nc(O[C@H]4CCOC4)c32)cn1 [Example 115]
70 | 100 to 1000 nM | Cn1cc(-n2ccc3nc(Nc4ccccc4)nc(O[C@H]4CCOC4)c32)cn1 [Example 116]
71 | 1000 to 10000 nM | Cn1cc(-n2ccc3nc(Nc4cccnc4)nc(O[C@H]4CCOC4)c32)cn1 [Example 117]
72 | ≤ 100 nM | Cn1cc(-n2ccc3nc(Nc4ccc5[nH]ncc5c4)nc(O[C@H]4CCOC4)c32)cn1 [Example 123]
73 | 100 to 1000 nM | Cn1cc(-n2ccc3nc(Nc4ccc5cn[nH]c5c4)nc(O[C@H]4CCOC4)c32)cn1 [Example 124]
74 | 100 to 1000 nM | Cn1cc(-n2ccc3nc(Nc4ccc5ncsc5c4)nc(O[C@H]4CCOC4)c32)cn1 [Example 125]
